By AC50 is commonly meant the concentration giving half of the maximal activity seen.

Activity calls are given as the source filed them.

In assay [1] the target is Photoreceptor-specific nuclear receptor (Homo sapiens, UniProt Q9Y5X4). Format: functional, cell-based.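 Also: CHO-S cells with Gal4-NCOR and VP16-NR2E3 two-hybrid luciferase reporter.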
A short description of assay [2]: nonselective StAR promoter luciferase inhibitors – cell-based, luminescence, luciferase reporter, counter-screen for LRH-1 inverse agonist project, dose response (AID 651969). Format: functional. For orientation: In a reporter assay the amount or activity of a reporter protein is the signal.
In assay [3] the target is Nuclear receptor subfamily 5 group A member 2 (Homo sapiens, UniProt O00482). The class given is functional, cell-based.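 Also: HEK293T cells transfected with LRH-1 and a StAR promoter luciferase reporter; potency for inhibitors that lower LRH-1 driven reporter light.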
The next assay concerns the target Steroidogenic factor 1 (Homo sapiens, UniProt Q13285). Description: Counterscreen for inverse agonists of the liver receptor homolog-1 (LRH-1; NR5A2): Luminescence-based cell-based high throughput dose response assay to identify inverse agonists of the Steroidogenic Factor 1 Nuclear Receptor (SF1; NR5A1). Format: functional. (In general: Counterscreens check selectivity or assay interference.)

In assay [4] the target is Tyrosine-protein phosphatase non-receptor type 5 (Homo sapiens, UniProt P54829). Briefly: PTPN5 enzyme inhibition – biochemical, fluorescence intensity, uHTS hits, confirmation (AID 602372). The class given is functional. As to conditions: read-out: IC50_Mean.
The target of assay [5] is Tyrosine-protein phosphatase non-receptor type 11 (Homo sapiens, UniProt Q06124). Briefly: PTPN11 enzyme inhibitors – biochemical, selectivity assay for STEP inhibitor project, dose response (AID 602367). Format: functional. Particulars: read-out: IC50_Mean.
The target in assay [6] is T1, Zinc finger protein mex-5 (Caenorhabditis elegans, UniProt Q9XUB2).
T1 sequence (Q9XUB2 whole entry): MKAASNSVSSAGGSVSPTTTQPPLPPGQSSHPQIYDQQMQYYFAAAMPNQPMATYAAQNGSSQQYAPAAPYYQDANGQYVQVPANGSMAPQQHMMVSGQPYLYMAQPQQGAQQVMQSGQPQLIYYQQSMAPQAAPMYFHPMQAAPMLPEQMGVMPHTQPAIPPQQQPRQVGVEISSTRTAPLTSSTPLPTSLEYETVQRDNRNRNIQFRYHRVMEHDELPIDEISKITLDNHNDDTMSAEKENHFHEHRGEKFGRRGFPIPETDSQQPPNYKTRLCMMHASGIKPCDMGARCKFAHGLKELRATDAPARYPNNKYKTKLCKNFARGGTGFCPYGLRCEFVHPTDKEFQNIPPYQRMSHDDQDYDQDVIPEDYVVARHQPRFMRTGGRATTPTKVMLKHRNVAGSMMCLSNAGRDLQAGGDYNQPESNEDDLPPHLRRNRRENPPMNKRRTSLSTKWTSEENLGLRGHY
Briefly: potency of MEX-5 RNA-binding blockers – biochemical, C. elegans, fluorescence polarization, dose response (AID 1960).

For assay [7], the target named is Dual specificity protein phosphatase 3 (Homo sapiens, UniProt P51452). Briefly: VHR phosphatase inhibition, dose response, selectivity assay for STEP inhibitor project, biochemical (AID 602374). The class given is functional. As to conditions: read-out: IC50_Mean.
In another assay the target is Genome polyprotein (dengue virus type 2, UniProt P29990). Briefly: flavivirus cap methylation enzyme inhibition – biochemical, confirmation dose response, primary screen (AID 588689). The class given is functional.
In assay [8] the target is T2, RNA-binding protein pos-1 (Caenorhabditis elegans, UniProt G5EF15).
T2 sequence (G5EF15 whole entry): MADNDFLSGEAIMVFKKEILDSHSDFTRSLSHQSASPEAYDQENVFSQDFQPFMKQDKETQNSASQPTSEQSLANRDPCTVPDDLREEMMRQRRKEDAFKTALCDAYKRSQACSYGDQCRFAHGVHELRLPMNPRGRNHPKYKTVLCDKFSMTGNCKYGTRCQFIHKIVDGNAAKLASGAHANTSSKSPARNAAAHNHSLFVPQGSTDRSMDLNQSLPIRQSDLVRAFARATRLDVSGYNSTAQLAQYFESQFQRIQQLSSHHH
Description: disruptors of C. elegans POS-1 RNA interaction – biochemical, fluorescence polarization, dose response (AID 1964).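 Also: purified POS-1 fused to maltose binding protein made in E. coli; potency of compounds blocking POS-1 binding to fluorescent RNA.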

For assay [9], the target named is T3, Long-chain-fatty-acid--AMP ligase FadD28 (Mycobacterium tuberculosis, UniProt P9WQ59).
T3 sequence (P9WQ59 whole entry): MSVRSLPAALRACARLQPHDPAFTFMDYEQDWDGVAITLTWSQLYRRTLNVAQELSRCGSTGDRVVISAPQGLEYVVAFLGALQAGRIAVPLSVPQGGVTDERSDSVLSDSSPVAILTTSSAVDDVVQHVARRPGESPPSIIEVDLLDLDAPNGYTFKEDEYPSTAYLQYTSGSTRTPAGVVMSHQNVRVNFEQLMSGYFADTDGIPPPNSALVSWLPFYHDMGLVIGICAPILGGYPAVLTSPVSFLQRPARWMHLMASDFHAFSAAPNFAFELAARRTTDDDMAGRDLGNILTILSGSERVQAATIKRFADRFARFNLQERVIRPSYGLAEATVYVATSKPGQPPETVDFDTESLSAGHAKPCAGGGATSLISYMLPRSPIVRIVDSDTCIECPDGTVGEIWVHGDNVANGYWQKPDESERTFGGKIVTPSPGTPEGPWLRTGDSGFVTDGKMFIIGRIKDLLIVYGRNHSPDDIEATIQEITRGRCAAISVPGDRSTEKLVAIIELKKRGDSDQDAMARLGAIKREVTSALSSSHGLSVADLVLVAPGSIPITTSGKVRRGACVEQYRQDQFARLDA
Description: Fluorescence polarization aasay to screen for inhibitors that compete for the binding of FadD28 to a bisubstrate Measured in Biochemical System Using Plate Reader - 2147-01_Inhibitor_Dose_CherryPick_Activity. The class given is functional, Mycobacterium tuberculosis H37Rv.

The target in assay [10] is T4, Microphthalmia-associated transcription factor (Homo sapiens, UniProt O75030).
T4 sequence (O75030 whole entry): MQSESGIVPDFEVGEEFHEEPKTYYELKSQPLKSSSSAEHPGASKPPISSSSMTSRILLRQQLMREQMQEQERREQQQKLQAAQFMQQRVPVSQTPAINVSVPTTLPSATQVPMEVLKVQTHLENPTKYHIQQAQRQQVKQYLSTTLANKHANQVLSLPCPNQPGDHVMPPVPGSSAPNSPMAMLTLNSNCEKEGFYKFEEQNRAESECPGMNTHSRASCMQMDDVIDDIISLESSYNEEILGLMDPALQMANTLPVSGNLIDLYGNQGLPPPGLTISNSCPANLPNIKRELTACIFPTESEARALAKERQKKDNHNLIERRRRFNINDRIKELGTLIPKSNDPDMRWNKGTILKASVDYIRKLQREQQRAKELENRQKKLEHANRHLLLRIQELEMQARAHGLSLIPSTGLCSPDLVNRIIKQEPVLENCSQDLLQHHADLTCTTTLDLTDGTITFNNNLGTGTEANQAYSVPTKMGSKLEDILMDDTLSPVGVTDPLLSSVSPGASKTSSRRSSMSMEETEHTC
Briefly: reducers of TRPM1 reporter luminescence, concentration series – cell-based, SK-MEL-5, cherry-picked, set 3, MITF inhibitor project, dose response (AID 493073).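 Also: SK-MEL-5 melanoma cells with luciferase driven by the MITF target TRPM1 promoter.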 The class given is functional.

The next assay addresses Beta Lactamase (Pseudomonas aeruginosa, UniProt Q932Y6). Description: BLA reporter interference, concentration series – BLA reporter cells, FRET fluorescence, artefact control for NOD2-RIPK2 interaction inhibitor project, dose response (AID 651552). The class given is functional, cell-based.
Assay [11] has as its target Heat shock protein HSP 90-alpha (Homo sapiens, UniProt P07900). The class given is functional, organism-based.
For the next assay, the target named is T5, X-box-binding protein 1 (Homo sapiens, UniProt P17861).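 Also: confirmatory dose-response counter-screen serving a CHOP assay.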
T5 sequence (P17861 whole entry): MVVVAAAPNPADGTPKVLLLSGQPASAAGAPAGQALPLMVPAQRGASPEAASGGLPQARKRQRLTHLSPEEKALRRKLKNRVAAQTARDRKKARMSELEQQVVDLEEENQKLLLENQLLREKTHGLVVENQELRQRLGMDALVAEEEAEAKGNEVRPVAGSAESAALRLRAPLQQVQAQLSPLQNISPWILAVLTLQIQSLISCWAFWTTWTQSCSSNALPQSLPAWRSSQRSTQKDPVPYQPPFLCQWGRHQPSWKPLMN
The class given is functional, Cricetulus griseus.

The nature of assay [12]: Fluorescence-based cell-based high throughput dose response assay for inhibitors of the interaction of nucleotide-binding oligomerization domain containing 2 (NOD2) and the receptor-interacting serine-threonine kinase 2 (RIPK2). Format: functional. As to conditions: Homo sapiens.
For assay [13], the target named is T6, Corticotropin-releasing factor receptor 2/Corticotropin-releasing factor-binding protein (Homo sapiens, UniProt P24387+Q13324).
T6 sequence (Q13324 whole entry): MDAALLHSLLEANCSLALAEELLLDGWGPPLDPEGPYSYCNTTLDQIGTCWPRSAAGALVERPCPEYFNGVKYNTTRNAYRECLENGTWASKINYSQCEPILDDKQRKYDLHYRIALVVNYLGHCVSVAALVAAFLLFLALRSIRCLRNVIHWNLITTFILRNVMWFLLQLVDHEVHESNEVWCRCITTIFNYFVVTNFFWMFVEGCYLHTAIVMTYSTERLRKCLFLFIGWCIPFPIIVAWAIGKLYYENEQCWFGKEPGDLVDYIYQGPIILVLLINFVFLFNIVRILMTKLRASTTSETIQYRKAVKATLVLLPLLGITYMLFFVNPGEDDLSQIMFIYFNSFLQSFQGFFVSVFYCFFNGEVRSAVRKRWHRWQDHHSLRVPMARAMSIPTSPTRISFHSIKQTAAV
T6 sequence (P24387 whole entry): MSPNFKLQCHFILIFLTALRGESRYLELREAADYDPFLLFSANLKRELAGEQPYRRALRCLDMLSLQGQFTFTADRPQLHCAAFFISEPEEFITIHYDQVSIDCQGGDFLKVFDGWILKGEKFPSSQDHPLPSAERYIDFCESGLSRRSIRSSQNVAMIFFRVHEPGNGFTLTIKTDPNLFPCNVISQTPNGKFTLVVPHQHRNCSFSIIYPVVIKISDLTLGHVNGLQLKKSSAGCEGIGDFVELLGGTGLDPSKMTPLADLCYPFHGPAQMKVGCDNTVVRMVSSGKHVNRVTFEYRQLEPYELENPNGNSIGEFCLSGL
Briefly: activators of CRF receptor 2 with binding protein – uHTS hits, confirmation (AID 602473). Format: functional. As to conditions: read-out: EC50_Mean.

Assay [14] can be described thus: blockers of CRF-binding protein–CRF-R2 complex – cell-based, uHTS hits, 384-well, dose response (AID 651639). The class given is functional, Homo sapiens. Particulars: read-out: IC50_Mean.
Assay [15] addresses T6, Corticotropin-releasing factor receptor 2/Corticotropin-releasing factor-binding protein. Description: Dose Response confirmation of uHTS hits for small molecule antagonists of the CRF-binding protein and CRF-R2 receptor complex. Format: functional. As to conditions: read-out: IC50_Mean.
Assay [16] has as its target T7, Small ubiquitin-related modifier 1 (Homo sapiens, UniProt P63165). Briefly: SUMO1 protein-protein binding blockers, potency – biochemical, FRET, dose response (AID 624383). Format: functional. As to conditions: read-out: IC50_Mean.
The target in assay [17] is T8, Low molecular weight phosphotyrosine protein phosphatase (Homo sapiens, UniProt P24666).
T8 sequence (P24666 whole entry): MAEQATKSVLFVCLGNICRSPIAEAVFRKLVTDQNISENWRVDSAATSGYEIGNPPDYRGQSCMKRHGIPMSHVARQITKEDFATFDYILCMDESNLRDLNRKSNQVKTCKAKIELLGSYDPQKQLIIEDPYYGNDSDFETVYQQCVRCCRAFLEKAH
The class given is functional. Particulars: read-out: IC50_Mean.

Assay [18] deals with T7, Small ubiquitin-related modifier 1. Description: SUMO1 protein interaction blockers, potency – biochemical, fluorescence polarization, uHTS hits, dose response (AID 624382). Format: functional. As to conditions: read-out: IC50_Mean.
The target of assay [19] is T8, Low molecular weight phosphotyrosine protein phosphatase. Format: functional. As to conditions: read-out: IC50_Mean. The source holds these as a separate data set.
For assay [20], the target named is T9, ATP-dependent translocase ABCB1 (Homo sapiens, UniProt P08183). Description: P-gp JC-1 efflux blockade concentration-response – Jurkat-DNR cells, flow cytometry, set 2, dose response (AID 504569).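 Also: potency of pump inhibitors that raise cellular JC-1 green fluorescence up to the nicardipine level.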 Format: functional. Particulars: read-out: EC50_MICROM_. (In general: Flow cytometry measures light scatter and fluorescence of single cells or particles in a stream.)

Assay [21] addresses T9, ATP-dependent translocase ABCB1. Description: inhibition of BCRP-mediated JC-1 efflux – Ig-MXP3 cells, flow cytometry, set 2, dose response (AID 504566).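 Also: flow cytometry median green fluorescence of retained JC-1 dye; potency of efflux pump inhibition measured as rising substrate retention.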 Format: functional. Particulars: read-out: EC50_MICROM_.

T9 sequence (P08183 whole entry): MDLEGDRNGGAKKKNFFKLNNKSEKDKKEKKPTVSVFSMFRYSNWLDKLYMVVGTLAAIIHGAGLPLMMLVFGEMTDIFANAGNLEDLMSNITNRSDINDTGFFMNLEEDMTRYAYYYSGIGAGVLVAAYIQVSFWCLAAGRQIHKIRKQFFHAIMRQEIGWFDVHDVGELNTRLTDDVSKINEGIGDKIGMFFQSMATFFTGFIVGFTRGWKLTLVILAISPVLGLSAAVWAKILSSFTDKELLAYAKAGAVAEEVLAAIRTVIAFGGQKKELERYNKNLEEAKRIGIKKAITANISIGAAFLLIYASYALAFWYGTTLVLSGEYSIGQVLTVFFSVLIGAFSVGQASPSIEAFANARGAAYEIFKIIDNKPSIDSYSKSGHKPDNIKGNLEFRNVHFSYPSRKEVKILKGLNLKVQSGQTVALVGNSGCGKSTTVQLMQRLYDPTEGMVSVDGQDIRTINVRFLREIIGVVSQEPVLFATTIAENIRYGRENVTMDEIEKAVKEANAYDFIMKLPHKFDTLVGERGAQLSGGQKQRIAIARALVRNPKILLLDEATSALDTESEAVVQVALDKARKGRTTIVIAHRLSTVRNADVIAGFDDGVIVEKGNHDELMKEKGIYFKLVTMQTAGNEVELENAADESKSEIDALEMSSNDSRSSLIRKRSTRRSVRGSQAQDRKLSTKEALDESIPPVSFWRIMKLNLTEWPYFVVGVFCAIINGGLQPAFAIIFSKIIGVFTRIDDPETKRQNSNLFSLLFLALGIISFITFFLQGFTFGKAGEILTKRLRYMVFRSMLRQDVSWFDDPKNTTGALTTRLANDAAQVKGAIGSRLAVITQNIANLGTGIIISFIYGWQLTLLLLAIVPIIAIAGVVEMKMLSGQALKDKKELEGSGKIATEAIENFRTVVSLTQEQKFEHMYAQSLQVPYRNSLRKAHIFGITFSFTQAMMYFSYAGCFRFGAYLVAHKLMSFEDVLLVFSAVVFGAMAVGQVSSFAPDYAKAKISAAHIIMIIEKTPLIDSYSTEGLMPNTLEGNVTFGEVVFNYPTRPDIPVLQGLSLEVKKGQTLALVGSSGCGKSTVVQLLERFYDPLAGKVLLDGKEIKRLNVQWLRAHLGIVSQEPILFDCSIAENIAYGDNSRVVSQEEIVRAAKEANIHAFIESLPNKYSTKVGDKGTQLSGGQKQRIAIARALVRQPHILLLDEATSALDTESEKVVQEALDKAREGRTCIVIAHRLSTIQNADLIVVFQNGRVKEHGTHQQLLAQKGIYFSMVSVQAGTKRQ
T7 sequence (P63165 whole entry): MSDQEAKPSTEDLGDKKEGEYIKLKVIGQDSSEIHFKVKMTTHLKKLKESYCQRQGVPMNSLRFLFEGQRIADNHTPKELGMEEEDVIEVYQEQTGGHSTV
Sequence of Dual specificity protein phosphatase 3 (P51452 whole entry): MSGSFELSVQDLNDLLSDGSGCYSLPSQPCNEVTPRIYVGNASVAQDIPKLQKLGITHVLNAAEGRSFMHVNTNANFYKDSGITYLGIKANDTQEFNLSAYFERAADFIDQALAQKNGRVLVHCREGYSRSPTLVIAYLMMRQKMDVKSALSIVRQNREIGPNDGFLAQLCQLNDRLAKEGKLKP
Sequence of Steroidogenic factor 1 (Q13285 whole entry): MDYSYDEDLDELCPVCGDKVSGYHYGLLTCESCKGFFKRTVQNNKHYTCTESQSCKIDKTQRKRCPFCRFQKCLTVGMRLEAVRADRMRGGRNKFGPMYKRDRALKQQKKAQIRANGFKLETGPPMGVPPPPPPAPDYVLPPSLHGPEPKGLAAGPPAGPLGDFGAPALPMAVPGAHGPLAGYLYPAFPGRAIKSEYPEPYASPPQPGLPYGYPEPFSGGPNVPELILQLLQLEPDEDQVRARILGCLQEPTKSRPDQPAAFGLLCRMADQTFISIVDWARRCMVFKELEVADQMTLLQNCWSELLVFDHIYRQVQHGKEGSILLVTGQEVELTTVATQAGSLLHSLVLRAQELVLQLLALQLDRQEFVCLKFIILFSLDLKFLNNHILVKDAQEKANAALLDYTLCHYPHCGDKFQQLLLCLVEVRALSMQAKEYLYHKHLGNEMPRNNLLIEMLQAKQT
Sequence of Genome polyprotein (P29990 2492-3391 limits assumed): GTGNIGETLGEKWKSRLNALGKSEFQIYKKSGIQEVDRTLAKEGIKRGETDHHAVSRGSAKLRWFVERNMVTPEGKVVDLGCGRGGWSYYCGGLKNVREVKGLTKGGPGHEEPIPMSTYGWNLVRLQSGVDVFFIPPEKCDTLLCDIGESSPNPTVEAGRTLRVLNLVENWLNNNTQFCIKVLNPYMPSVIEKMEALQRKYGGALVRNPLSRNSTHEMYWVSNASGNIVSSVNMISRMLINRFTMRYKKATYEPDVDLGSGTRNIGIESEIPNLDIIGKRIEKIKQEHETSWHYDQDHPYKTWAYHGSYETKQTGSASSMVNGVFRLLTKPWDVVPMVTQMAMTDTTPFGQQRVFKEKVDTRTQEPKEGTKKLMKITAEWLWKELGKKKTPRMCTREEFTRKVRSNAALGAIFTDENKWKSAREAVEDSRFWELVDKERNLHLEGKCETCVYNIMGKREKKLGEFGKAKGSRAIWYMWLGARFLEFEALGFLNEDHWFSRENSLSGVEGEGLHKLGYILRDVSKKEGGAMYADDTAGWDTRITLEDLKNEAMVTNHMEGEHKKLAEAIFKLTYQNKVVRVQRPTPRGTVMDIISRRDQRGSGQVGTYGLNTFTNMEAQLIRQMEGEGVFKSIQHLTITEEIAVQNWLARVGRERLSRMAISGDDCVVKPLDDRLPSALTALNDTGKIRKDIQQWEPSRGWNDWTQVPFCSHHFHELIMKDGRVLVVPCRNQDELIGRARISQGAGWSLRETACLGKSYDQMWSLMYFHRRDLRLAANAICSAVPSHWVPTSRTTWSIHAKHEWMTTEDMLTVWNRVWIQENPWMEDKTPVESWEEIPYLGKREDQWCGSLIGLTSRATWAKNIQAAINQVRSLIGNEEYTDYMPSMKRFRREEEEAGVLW
Sequence of Photoreceptor-specific nuclear receptor (Q9Y5X4 whole entry, the tested form may be a part): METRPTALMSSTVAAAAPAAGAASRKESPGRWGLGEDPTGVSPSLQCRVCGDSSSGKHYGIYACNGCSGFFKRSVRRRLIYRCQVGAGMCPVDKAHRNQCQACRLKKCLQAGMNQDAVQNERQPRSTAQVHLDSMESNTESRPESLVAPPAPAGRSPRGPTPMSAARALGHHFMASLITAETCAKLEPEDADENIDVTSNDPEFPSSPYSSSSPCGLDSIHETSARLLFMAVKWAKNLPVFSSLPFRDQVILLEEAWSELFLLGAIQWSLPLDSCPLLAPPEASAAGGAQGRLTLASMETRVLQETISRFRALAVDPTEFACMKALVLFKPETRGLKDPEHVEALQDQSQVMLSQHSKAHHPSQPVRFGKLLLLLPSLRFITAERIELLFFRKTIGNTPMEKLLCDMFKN
Sequence of Beta Lactamase (Q932Y6 whole entry): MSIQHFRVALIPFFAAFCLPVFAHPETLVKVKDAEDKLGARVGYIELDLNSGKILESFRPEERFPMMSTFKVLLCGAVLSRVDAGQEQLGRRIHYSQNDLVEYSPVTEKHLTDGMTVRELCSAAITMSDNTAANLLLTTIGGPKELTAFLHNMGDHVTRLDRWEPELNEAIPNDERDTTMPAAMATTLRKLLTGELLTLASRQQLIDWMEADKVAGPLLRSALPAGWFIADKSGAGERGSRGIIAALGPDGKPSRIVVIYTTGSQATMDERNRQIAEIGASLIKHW
Sequence of Nuclear receptor subfamily 5 group A member 2 (O00482 whole entry): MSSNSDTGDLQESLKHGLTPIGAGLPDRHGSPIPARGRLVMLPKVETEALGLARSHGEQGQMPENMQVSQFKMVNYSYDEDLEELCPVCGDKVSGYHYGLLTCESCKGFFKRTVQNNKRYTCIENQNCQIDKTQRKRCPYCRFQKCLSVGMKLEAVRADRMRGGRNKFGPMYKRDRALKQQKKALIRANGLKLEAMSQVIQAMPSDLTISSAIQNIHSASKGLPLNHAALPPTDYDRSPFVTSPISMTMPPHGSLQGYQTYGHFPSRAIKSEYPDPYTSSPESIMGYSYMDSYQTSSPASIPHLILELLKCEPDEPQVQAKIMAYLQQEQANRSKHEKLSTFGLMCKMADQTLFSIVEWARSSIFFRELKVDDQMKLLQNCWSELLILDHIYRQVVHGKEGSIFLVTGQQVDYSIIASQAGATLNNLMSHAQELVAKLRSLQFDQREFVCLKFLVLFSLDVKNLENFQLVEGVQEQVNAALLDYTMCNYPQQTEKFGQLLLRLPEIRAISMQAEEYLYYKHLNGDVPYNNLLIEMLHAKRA
Sequence of Tyrosine-protein phosphatase non-receptor type 11 (Q06124 whole entry): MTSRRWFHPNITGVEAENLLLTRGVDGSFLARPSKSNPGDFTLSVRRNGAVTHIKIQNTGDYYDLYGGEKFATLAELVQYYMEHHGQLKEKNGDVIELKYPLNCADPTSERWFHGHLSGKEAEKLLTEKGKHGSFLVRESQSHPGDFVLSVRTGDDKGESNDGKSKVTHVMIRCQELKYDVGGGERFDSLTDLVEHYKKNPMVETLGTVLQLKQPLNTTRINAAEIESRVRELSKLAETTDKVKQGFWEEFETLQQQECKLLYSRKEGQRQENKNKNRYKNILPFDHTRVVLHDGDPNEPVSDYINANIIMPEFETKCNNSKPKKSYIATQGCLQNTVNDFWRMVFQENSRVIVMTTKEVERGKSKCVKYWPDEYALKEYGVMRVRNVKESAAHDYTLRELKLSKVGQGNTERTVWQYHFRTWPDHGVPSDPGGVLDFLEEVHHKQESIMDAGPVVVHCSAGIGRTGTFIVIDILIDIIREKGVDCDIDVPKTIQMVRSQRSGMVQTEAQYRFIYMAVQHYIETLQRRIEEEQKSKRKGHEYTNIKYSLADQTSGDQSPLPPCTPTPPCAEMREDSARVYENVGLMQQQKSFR

Take `Oc1cc(C(F)(F)F)nc(SC/C=C/c2ccccc2)n1`: the IC50 in assay [1] was 12.7 µM (inactive).

For `O=C(Nc1ccccc1)c1oc2ccccc2c1NC(=O)C1CC1`, the IC50 (in [2]; in assay [3]; on Steroidogenic factor 1) was 35.9 µM (inactive) each time.

As for `COc1cc(/C=C2/C(=O)NN(c3cccc(C)c3)C2=O)cc([N+](=O)[O-])c1O`, the IC50 was 25.5 µM (inactive) in assay [4], 5.63 µM (active) in assay [5], 4.11 µM (active) in assay [7] and 51.5 µM (active) at Genome polyprotein. For the same compound, the EC50 in [6] was 89.1 µM (active); in assay [8], > 300 µM (not active). Moreover, in assay [9], the AC50 was 39.2 µM (active).

As to `COc1ccc(C(=O)/C=C/C(=O)N(CC(=O)NC2CCCCC2)Cc2cccs2)c(O)c1`, the AC50 is 5.53 µM (active) in [10] and 2.98 µM (active) in assay [11]. Further, the IC50 at Beta Lactamase was 24.7 µM (inactive); in [12], 4.66 µM (active). Besides, the “Absolute IC50 (XBP1)” value on X-box-binding protein 1 came out at 10 µM.

Take `N#Cc1c(C(F)(F)F)cc(-c2ccc(Cl)cc2)nc1O`: in assay [13], the EC50 was > 53 µM (inactive). For the same compound, the IC50 in assay [14] was > 20 µM (inactive); in assay [15], 4.16 µM (active).

With `Cc1cc(C)c2nc3sc(=Cc4ccc(-c5ccccc5C(=O)O)o4)c(=O)n3c2c1`, the IC50 in [16] was 5.88 µM (active); in assay [17] it was 62.9 µM (inactive); in assay [18] it was > 66.6 µM (inactive); in assay [19] it was 26.5 µM (inactive).

Regarding `COc1ccc(-c2cc3nc(-c4ccccc4)cc(N4CCN(C(=O)c5ccco5)CC4)n3n2)cc1`, the results for the EC50 in assay [20] and in assay [21] were 3.35 µM (active) and 1.28 µM (active), respectively.

These data come from ChEMBL document CHEMBL1201862, “PubChem BioAssay data set” (2004).
